Measurements as given in patent US9856304B2, “Peptide and application thereof” (Saitama Medical University, priority 2013, dated 2018).

Test system: human iPS cells (253G1 cells)
Assay: Differentiation induction of human iPS cells into pancreatic hormone-producing cells (1), quantitative RT-PCR
Type: cell-based
Conditions: 3 nM betagenin in step (D2), 11 days, vs DMSO control, Day 10 cells taken as 1, FIG. 2
Text: As human iPS cells, used were 253G1 cells purchased from the cell bank at RIKEN, TIG3/KOSM cells provided by Dr. Mitani at Saitama Medical University, 200-9 cells, a clone in which a reporter gene is introduced into TIG3/KOSM cells. TIG3/KOSM cells were established at The National Institute of Advanced Industrial Science and Technology by introducing 4 factors (the OCT gene, the KLF gene, the SOX gene, the MYC gene) into TIG-3 cells using Sendai virus (Nishimura, K. et al., J. Biol. Chem., 286, pp. 4760-4771 (2011)).
These cells were cultured/maintained in an ES cell culture medium (DMEM/ham F12, 20% KSR, nonessential amino acid, 2 mM L-glutamine, 0.1 mM 2-mercaptoethanol, 5.2 mM NaOH) with added 4 ng/mL FGF-2 (Global Stem) and penicillin/streptomycin (Nacalai Tesque, Inc.) along with SNL76/7 cells (DS Pharma Biomedical) treated with mitomycin-C. […]
The gene expression of insulin was confirmed by quantitative RT-PCR for the cells (n=2 for each of the betagenin addition group and the control group) obtained from 253G1 cells via the above steps (A2) to (D2). Specifically, total RNA was first extracted from the cells using a SV Total RNA Isolation System (Promega), and reverse transcription reactions were performed with BioScript™ transcriptase (Bioline), and then quantitative PCR analysis was performed using SYBR™ Green PCR Master Mix (Applied Biosystems). […]

betagenin: chemically synthesized peptide of SEQ ID NO: 1, fragment of human TM4SF20 from Position 170 to Position 229 (WRASSFHFDSEENKHRLIHFSVFLGLLLVGILEVLFGLSQIVIGFLGCLCGVSKRRSQIV; Peptide Sequence betagenin; listed as Homo sapiens)
amount of insulin expression (relative): increased
